The supplement of paper PMC12463676, “Small-molecule dissolution of stress granules by redox modulation benefits ALS models” (Nature Chemical Biology, 2025)

How the values were obtained:
lipoamide = compound: NC(=O)CCCCC1CCSS1 [lipoamide]; assay: thermal stability z-score vs DMSO; higher = more thermally stabilized by treatment; settings: HeLa, lipoamide concentration 100 µM
Procedure: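 Cellular thermal proteome profiling in HeLa cells. Cells were treated with 100 µM lipoamide for 1 h, with or without 1 mM arsenate for a further 1 h, then heated to ten temperatures (37-66.3 °C), and soluble protein was quantified by TMT mass spectrometry relative to 0.1% DMSO controls. The thermal stability score (sum of log2 fold changes minus the abundance score) was transformed to a z-score; mean of n = 3 experiments.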

potassium arsenate = compound: O=[As]([O-])(O)O.[K+] [potassium arsenate]; assay: as above; settings: HeLa; arsenate concentration 1 mM
Procedure: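 Cellular thermal proteome profiling in HeLa cells treated with 1 mM arsenate for 1 h (DMSO pretreatment), heated to ten temperatures (37-66.3 °C). Soluble protein was quantified by TMT mass spectrometry relative to DMSO controls; the thermal stability score was transformed to a z-score; mean of n = 3 experiments.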

[1] = arsenate co-treatment: 1 mM arsenate 1 h
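Further: each temperature applied for 3 min, abundance score taken as mean log2 fold change at the two lowest temperatures, z-score obtained by mean subtraction and division by SD.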

POU2F1 (UniProt P14859)
thermal stability z-score (lipoamide; [1]): -0.0121
thermal stability z-score (lipoamide; arsenate co-treatment: none): -0.303
thermal stability z-score (potassium arsenate): 0.0127

PPA1 (UniProt Q15181)
thermal stability z-score (lipoamide; [1]): 1.07
thermal stability z-score (lipoamide; arsenate co-treatment: none): 0.424
thermal stability z-score (potassium arsenate): -0.342

PPA2 (UniProt Q9H2U2)
thermal stability z-score (lipoamide; [1]): -1.03
thermal stability z-score (lipoamide; arsenate co-treatment: none): -0.335
thermal stability z-score (potassium arsenate): -0.244

PPAN (UniProt Q9NQ55)
thermal stability z-score (lipoamide; [1]): 0.703
thermal stability z-score (lipoamide; arsenate co-treatment: none): -0.582
thermal stability z-score (potassium arsenate): -0.33

PPAT (UniProt Q06203)
thermal stability z-score (lipoamide; [1]): 0.306
thermal stability z-score (lipoamide; arsenate co-treatment: none): 0.28
thermal stability z-score (potassium arsenate): -0.0713

PPCS (UniProt Q9HAB8)
UniProt Q9HAB8, sequence (Q9HAB8 whole entry): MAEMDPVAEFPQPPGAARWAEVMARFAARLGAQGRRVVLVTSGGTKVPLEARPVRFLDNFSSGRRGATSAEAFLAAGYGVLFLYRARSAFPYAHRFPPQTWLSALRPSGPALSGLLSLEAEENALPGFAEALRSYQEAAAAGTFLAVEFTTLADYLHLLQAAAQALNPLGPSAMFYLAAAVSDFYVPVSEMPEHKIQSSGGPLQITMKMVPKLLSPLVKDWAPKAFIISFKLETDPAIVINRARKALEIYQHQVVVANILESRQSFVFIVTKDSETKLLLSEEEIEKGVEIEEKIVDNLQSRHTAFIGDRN
thermal stability z-score (lipoamide; [1]): -0.183
thermal stability z-score (lipoamide; arsenate co-treatment: none): 0.122
thermal stability z-score (potassium arsenate): -0.328

PPFIA1 (UniProt Q13136)
thermal stability z-score (lipoamide; [1]): -0.28
thermal stability z-score (lipoamide; arsenate co-treatment: none): -0.239
thermal stability z-score (potassium arsenate): 0.263

PPFIBP1 (UniProt Q86W92)
thermal stability z-score (lipoamide; [1]): -0.215
thermal stability z-score (lipoamide; arsenate co-treatment: none): 0.229
thermal stability z-score (potassium arsenate): 0.32

PPHLN1 (UniProt Q8NEY8)
thermal stability z-score (lipoamide; [1]): 0.687
thermal stability z-score (lipoamide; arsenate co-treatment: none): 0.672
thermal stability z-score (potassium arsenate): -0.137

PPIA (UniProt P62937)
thermal stability z-score (lipoamide; [1]): 0.27
thermal stability z-score (lipoamide; arsenate co-treatment: none): 0.693
thermal stability z-score (potassium arsenate): -0.295

PPIB (UniProt P23284)
UniProt P23284, sequence (P23284 whole entry): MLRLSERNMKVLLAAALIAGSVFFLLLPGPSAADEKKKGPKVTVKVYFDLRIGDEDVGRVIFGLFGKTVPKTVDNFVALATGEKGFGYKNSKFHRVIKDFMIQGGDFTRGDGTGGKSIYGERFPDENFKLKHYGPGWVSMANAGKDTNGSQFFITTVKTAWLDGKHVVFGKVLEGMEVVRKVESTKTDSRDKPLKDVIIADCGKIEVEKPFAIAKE
thermal stability z-score (lipoamide; [1]): -3.74
thermal stability z-score (lipoamide; arsenate co-treatment: none): -2.72
thermal stability z-score (potassium arsenate): 0.559

PPID (UniProt Q08752)
thermal stability z-score (lipoamide; [1]): 0.244
thermal stability z-score (lipoamide; arsenate co-treatment: none): -0.234
thermal stability z-score (potassium arsenate): 0.368

PPIE (UniProt Q9UNP9)
thermal stability z-score (lipoamide; [1]): 0.246
thermal stability z-score (lipoamide; arsenate co-treatment: none): 0.0366
thermal stability z-score (potassium arsenate): 0.128

PPIF (UniProt P30405)
thermal stability z-score (lipoamide; [1]): 0.26
thermal stability z-score (lipoamide; arsenate co-treatment: none): 0.29
thermal stability z-score (potassium arsenate): 0.0382

PPIH (UniProt O43447)
thermal stability z-score (lipoamide; [1]): 0.218
thermal stability z-score (lipoamide; arsenate co-treatment: none): -0.34
thermal stability z-score (potassium arsenate): -0.183

PPIL1 (UniProt Q9Y3C6)
thermal stability z-score (lipoamide; [1]): -0.0684
thermal stability z-score (lipoamide; arsenate co-treatment: none): -0.42
thermal stability z-score (potassium arsenate): -0.489

PPIL2 (UniProt Q13356)
thermal stability z-score (lipoamide; [1]): 0.057
thermal stability z-score (lipoamide; arsenate co-treatment: none): -0.0266
thermal stability z-score (potassium arsenate): -0.223

PPIL3 (UniProt Q9H2H8)
UniProt Q9H2H8, sequence (Q9H2H8 whole entry): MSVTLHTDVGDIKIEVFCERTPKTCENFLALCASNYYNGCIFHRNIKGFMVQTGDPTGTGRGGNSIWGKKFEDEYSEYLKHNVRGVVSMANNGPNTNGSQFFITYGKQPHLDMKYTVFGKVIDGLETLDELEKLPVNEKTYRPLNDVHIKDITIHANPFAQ
thermal stability z-score (lipoamide; [1]): -0.0679
thermal stability z-score (lipoamide; arsenate co-treatment: none): 0.0318
thermal stability z-score (potassium arsenate): -0.32

PPIL4 (UniProt Q8WUA2)
UniProt Q8WUA2, sequence (Q8WUA2 whole entry): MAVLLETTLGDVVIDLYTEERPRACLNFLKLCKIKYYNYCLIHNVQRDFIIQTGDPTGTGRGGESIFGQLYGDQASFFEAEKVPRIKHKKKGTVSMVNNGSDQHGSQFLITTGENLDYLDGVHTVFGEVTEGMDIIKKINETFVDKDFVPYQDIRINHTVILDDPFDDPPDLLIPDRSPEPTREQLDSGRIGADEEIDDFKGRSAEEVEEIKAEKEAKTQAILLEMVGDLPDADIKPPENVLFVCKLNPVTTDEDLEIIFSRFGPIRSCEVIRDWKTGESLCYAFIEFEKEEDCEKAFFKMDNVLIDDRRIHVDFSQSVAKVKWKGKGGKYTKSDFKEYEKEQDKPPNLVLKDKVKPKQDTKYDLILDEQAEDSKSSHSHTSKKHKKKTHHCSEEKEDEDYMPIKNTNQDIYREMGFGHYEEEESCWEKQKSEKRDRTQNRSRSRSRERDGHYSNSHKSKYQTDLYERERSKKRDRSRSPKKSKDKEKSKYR
thermal stability z-score (lipoamide; [1]): -0.441
thermal stability z-score (lipoamide; arsenate co-treatment: none): -0.236
thermal stability z-score (potassium arsenate): -0.913

PPIP5K1 (UniProt Q6PFW1)
UniProt Q6PFW1, sequence (Q6PFW1 whole entry): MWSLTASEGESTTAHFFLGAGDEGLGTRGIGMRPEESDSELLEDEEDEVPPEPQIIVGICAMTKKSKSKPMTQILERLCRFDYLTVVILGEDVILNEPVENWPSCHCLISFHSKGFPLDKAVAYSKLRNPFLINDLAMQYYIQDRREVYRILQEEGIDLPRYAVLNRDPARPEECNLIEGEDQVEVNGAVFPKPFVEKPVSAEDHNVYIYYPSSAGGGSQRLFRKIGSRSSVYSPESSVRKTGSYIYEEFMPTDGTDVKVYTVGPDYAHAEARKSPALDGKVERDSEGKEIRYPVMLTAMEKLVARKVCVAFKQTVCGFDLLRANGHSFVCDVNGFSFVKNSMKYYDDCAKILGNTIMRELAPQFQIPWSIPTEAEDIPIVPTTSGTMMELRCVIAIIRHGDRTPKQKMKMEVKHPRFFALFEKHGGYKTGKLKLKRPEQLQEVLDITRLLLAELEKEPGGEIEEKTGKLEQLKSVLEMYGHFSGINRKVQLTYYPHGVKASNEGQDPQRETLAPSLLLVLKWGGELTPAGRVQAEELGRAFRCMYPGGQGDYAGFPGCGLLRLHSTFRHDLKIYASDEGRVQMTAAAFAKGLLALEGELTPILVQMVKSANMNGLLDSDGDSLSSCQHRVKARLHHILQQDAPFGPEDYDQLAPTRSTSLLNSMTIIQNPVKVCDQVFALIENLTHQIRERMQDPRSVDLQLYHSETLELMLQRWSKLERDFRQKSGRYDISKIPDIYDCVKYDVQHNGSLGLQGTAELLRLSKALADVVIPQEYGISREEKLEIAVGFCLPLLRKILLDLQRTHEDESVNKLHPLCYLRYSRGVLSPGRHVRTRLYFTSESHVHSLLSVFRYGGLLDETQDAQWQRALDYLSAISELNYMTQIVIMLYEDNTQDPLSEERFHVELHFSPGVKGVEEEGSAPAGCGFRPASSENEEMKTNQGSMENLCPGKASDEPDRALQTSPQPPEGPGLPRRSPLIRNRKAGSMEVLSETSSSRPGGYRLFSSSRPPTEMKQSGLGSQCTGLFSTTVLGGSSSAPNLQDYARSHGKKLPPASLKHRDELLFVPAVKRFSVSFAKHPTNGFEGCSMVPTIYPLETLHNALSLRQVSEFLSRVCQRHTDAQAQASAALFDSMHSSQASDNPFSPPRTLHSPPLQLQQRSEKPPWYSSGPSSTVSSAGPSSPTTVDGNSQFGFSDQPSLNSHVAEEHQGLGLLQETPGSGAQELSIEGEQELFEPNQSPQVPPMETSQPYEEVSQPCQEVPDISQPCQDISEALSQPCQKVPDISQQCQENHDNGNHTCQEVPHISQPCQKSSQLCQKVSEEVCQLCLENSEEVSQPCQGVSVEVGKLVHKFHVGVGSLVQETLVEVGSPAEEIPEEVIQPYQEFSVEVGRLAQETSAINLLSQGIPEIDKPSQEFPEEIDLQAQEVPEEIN
thermal stability z-score (lipoamide; [1]): -0.0717
thermal stability z-score (lipoamide; arsenate co-treatment: none): 0.0968
thermal stability z-score (potassium arsenate): 0.125

PPIP5K2 (UniProt O43314)
thermal stability z-score (lipoamide; [1]): 0.258
thermal stability z-score (lipoamide; arsenate co-treatment: none): 0.00428
thermal stability z-score (potassium arsenate): -0.606

PPL (UniProt O60437)
thermal stability z-score (lipoamide; [1]): -0.117
thermal stability z-score (lipoamide; arsenate co-treatment: none): -0.141
thermal stability z-score (potassium arsenate): 0.125

PPM1A (UniProt P35813)
thermal stability z-score (lipoamide; [1]): 0.622
thermal stability z-score (lipoamide; arsenate co-treatment: none): 0.096
thermal stability z-score (potassium arsenate): -0.154

PPM1B (UniProt O75688)
thermal stability z-score (lipoamide; [1]): 0.109
thermal stability z-score (lipoamide; arsenate co-treatment: none): 0.277
thermal stability z-score (potassium arsenate): 0.179

PPM1F (UniProt P49593)
thermal stability z-score (lipoamide; [1]): -0.361
thermal stability z-score (lipoamide; arsenate co-treatment: none): -0.757
thermal stability z-score (potassium arsenate): -0.617

PPM1G (UniProt O15355)
UniProt O15355, sequence (O15355 whole entry): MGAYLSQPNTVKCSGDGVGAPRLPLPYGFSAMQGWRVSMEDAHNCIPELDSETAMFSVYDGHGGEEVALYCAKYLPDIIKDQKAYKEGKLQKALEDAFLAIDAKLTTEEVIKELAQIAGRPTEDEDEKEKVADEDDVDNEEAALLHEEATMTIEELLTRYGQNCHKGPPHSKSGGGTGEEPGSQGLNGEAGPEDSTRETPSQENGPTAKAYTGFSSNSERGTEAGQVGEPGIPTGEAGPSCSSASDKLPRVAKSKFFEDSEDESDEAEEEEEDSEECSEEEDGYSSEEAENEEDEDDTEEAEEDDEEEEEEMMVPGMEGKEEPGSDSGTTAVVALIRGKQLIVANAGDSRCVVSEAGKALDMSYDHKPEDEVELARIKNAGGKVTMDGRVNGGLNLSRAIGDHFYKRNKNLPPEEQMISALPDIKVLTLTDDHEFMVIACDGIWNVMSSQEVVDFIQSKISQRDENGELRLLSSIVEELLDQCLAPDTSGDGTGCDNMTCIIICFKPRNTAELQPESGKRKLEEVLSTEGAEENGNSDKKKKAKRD
thermal stability z-score (lipoamide; [1]): 0.2
thermal stability z-score (lipoamide; arsenate co-treatment: none): 0.916
thermal stability z-score (potassium arsenate): -0.0978

PPM1H (UniProt Q9ULR3)
UniProt Q9ULR3, sequence (Q9ULR3 whole entry): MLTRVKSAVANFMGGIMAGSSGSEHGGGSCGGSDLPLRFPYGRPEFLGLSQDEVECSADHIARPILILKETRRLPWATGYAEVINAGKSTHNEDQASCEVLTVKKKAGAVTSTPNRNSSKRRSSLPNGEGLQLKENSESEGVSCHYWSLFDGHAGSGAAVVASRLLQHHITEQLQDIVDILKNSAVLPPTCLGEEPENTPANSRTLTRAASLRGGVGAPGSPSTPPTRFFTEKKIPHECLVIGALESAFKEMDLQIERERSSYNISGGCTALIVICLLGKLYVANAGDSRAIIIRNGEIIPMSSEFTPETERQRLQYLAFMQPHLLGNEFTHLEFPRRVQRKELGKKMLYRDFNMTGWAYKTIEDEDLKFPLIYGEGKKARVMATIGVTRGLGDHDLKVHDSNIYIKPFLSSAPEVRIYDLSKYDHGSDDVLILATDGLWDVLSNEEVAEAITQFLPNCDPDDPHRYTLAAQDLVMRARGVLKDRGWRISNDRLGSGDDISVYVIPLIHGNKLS
thermal stability z-score (lipoamide; [1]): -1.19
thermal stability z-score (lipoamide; arsenate co-treatment: none): 0.00662
thermal stability z-score (potassium arsenate): -1.01

PPM1L (UniProt Q5SGD2)
UniProt Q5SGD2, sequence (Q5SGD2 whole entry): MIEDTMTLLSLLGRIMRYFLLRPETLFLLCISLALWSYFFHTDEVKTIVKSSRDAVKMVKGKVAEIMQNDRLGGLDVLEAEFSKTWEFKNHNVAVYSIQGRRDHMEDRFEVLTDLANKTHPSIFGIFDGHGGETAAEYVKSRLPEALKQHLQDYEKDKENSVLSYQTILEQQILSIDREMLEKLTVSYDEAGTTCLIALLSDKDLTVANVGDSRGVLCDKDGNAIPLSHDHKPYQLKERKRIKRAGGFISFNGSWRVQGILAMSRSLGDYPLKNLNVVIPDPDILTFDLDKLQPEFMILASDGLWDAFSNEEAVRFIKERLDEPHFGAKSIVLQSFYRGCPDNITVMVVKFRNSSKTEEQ
thermal stability z-score (lipoamide; [1]): -0.022
thermal stability z-score (lipoamide; arsenate co-treatment: none): -0.095
thermal stability z-score (potassium arsenate): -0.192

PPME1 (UniProt Q9Y570)
UniProt Q9Y570, sequence (Q9Y570 whole entry): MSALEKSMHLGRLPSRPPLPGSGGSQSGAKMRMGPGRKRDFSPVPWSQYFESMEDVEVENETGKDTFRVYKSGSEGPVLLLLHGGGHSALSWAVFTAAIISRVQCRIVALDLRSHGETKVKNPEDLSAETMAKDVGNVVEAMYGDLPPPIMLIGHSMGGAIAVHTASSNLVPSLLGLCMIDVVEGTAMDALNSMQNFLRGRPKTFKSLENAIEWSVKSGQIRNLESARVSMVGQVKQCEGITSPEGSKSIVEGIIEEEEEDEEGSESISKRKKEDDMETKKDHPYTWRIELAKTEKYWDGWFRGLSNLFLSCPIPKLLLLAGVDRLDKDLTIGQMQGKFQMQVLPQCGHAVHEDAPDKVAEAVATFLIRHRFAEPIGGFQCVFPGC
thermal stability z-score (lipoamide; [1]): 0.126
thermal stability z-score (lipoamide; arsenate co-treatment: none): 0.00998
thermal stability z-score (potassium arsenate): -1.09

PPOX (UniProt P50336)
UniProt P50336, sequence (P50336 whole entry): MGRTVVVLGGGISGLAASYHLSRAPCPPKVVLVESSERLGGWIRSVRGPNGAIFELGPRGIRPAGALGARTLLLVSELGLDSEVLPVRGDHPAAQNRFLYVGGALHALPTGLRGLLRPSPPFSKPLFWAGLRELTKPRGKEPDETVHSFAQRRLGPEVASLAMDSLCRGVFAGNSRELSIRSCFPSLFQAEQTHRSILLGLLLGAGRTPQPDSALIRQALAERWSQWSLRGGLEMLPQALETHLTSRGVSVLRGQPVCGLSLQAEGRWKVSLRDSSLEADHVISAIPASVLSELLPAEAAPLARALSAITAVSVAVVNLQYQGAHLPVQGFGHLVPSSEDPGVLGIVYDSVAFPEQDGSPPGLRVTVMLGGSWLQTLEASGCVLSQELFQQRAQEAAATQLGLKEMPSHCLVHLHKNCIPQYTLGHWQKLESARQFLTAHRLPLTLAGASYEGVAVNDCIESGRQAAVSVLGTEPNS
thermal stability z-score (lipoamide; [1]): 0.085
thermal stability z-score (lipoamide; arsenate co-treatment: none): 0.352
thermal stability z-score (potassium arsenate): 0.154

PPP1CA (UniProt P62136)
thermal stability z-score (lipoamide; [1]): 0.221
thermal stability z-score (lipoamide; arsenate co-treatment: none): -0.27
thermal stability z-score (potassium arsenate): -0.971
